As a reminder, the EC50 is the concentration at which the effect is half-maximal.

The first test relates to parasite. As to the kind of experiment: Parasite LDH growth assay (Parasite Assay), antiparasite potency. The test is classed as cell-based. Particulars: 72 h, parasite LDH growth assay, ring stage parasites, 72 hours incubation at 37° C.; read-out: EC50. On the procedure:
Assessing Antiparasite Potency in a Parasite LDH Growth Assay (Parasite Assay)
The parasite stock was maintained at 4% haematocrit in RPMI-Hepes media buffered with sodium bicarbonate and supplemented with 5% heat inactivated human serum and 0.5% albumax.
On the day of assay set up, a blood smear of the parasite culture was Giemsa stained and counted. The parasitemia was adjusted to 0.7% rings and the haematocrit was diluted to 2% in RPMI-Hepes media buffered with sodium bicarbonate and supplemented with 5% heat inactivated human serum and 0.5% albumax. 30 ul of diluted parasites are then added into 10 ul of media+compound in pre-prepared Greiner TC assay plates. Parasite assay plates were placed in gassed humidified boxes in single layer and allowed to incubate at 37° C. for 72 hours. After 72 hours growth, assay plates are sealed with parafilm and frozen flat, in single file at −80° C. overnight. On the following day, assay plates are allowed to thaw at room temperature for 4 hours to which an LDH assay is performed to measure parasite growth.
Take `CCC1(CC)CC(=O)N([C@@H]2C[C@@H](OC)c3ccc(C(=O)N[C@@H]4c5ccccc5OC[C@@]4(C)O)cc32)C(=N)N1` [Example 203, (1R,3R)-3-(4,4-diethyl-2-imino-6-oxo-hexahydropyrimidin-1-yl)-N-[(3S,4R)-3-hydroxy-3-methyl-chroman-4-yl]-1-methoxy-indane-5-carboxamide]: the EC50 was 5.9 nM.
Same read-out and setting: the result for `CC[C@@]1(C)CC(=O)N([C@@H]2CCOc3ccc(C(=O)N[C@@H]4c5cc(F)ccc5OC(C)(C)[C@H]4O)cc32)C(=N)N1` [Example 225, (4R)-4-[(4S)-4-ethyl-2-imino-4-methyl-6-oxo-hexahydropyrimidin-1-yl]-N-[(3S,4R)-6-fluoro-3-hydroxy-2,2-dimethyl-chroman-4-yl]chromane-6-carboxamide] reads 0.8 nM; that for `CCC1(CC)CC(=O)N([C@H]2c3cc(C(=O)N[C@@H]4c5ccccc5OC(C)(C)[C@H]4O)ccc3OC[C@@H]2COC)C(=N)N1` [Example 299, (3S,4R)-4-(4,4-diethyl-2-imino-6-oxo-hexahydropyrimidin-1-yl)-N-[(3S,4R)-3-hydroxy-2,2-dimethyl-chroman-4-yl]-3-(methoxymethyl)chromane-6-carboxamide], 0.8 nM; that for `CC1(C)CC(=O)N([C@H]2c3cc(C(=O)N[C@@H]4c5ccccc5OC(C)(C)[C@H]4O)ccc3OC2(C)C)C(=N)N1` [Example 182, (3S)-N-[(3S,4R)-3-hydroxy-2,2-dimethyl-chroman-4-yl]-3-(2-imino-4,4-dimethyl-6-oxo-hexahydropyrimidin-1-yl)-2,2-dimethyl-3H-benzofuran-5-carboxamide], 6.1 nM.
The same measure, in the same setting: the result for `CC[C@]1(C)CC(=O)N([C@@H]2CCc3ccc(C(=O)N[C@@H]4c5ccccc5OC(C)(C)[C@H]4O)cc32)C(=N)N1` [Example 121, (3R)-3-[(4R)-4-ethyl-2-imino-4-methyl-6-oxo-hexahydropyrimidin-1-yl]-N-[(3S,4R)-3-hydroxy-2,2-dimethyl-chroman-4-yl]indane-5-carboxamide] reads 0.6 nM; that for `CCC1(CC)CC(=O)N([C@@H]2c3cc(C(=O)N[C@@H]4c5ccccc5OC(C)(C)[C@H]4O)ccc3OC[C@@]2(C)OC)C(=N)N1` [Example 295, (3S,4R)-4-(4,4-diethyl-2-imino-6-oxo-hexahydropyrimidin-1-yl)-N-[(3S,4R)-3-hydroxy-2,2-dimethyl-chroman-4-yl]-3-methoxy-3-methyl-chromane-6-carboxamide], 100 nM.
Take `CCC1(CC)CC(=O)N([C@@H]2CCOc3ccc(C(=O)NC(c4ccccc4)c4ccccc4)cc32)C(=N)N1` [Example 194, (4R)-N-benzhydryl-4-(4,4-diethyl-2-imino-6-oxo-hexahydropyrimidin-1-yl)chromane-6-carboxamide]: the concentration for a half-maximal effect (EC50) came out at 0.9 nM.
The same measure, in the same setting: the result for `CCC1(CC)CC(=O)N([C@@H]2CCCOc3ccc(C(=O)N[C@@H]4c5ccccc5OC(C)(C)[C@H]4O)cc32)C(=N)N1` [Example 248, (5R)-5-(4,4-diethyl-2-imino-6-oxo-hexahydropyrimidin-1-yl)-N-[(3S,4R)-3-hydroxy-2,2-dimethyl-chroman-4-yl]-2,3,4,5-tetrahydro-1-benzoxepine-7-carboxamide] reads 0.8 nM; that for `CCC1(CC)CC(=O)N([C@H]2c3cc(C(=O)N[C@@H]4c5ccccc5C[C@H]4O)ccc3OC[C@H]2C)C(=N)N1` [Example 118, (3S,4R)-4-(4,4-diethyl-2-imino-6-oxo-hexahydropyrimidin-1-yl)-N-[(1R,2R)-2-hydroxyindan-1-yl]-3-methyl-chromane-6-carboxamide], 0.9 nM; that for `CC[C@]1(C)CC(=O)N([C@@H]2CCOc3ccc(C(=O)N[C@@H]4c5cc(F)ccc5OC(C)(C)[C@H]4O)cc32)C(=N)N1` [Example 224, (4R)-4-[(4R)-4-ethyl-2-imino-4-methyl-6-oxo-hexahydropyrimidin-1-yl]-N-[(3S,4R)-6-fluoro-3-hydroxy-2,2-dimethyl-chroman-4-yl]chromane-6-carboxamide], 0.3 nM.
Same read-out and setting: the result for `CCC1(CC)CC(=O)N([C@@H]2Cc3ccc(C(=O)N[C@@H]4c5ccccc5C[C@H]4O)cc32)C(=N)N1` [Example 83, (8R)-8-(4,4-diethyl-2-imino-6-oxo-hexahydropyrimidin-1-yl)-N-[(1R,2R)-2-hydroxyindan-1-yl]bicyclo[4.2.0]octa-1(6),2,4-triene-3-carboxamide] reads 20 nM; that for `COC1COc2ccc(C(=O)N[C@@H]3c4ccccc4C[C@H]3O)cc2C1N1C(=N)NC(C)(C)CC1=O` (stereo partly drawn) [Example 110, N-[(1R,2R)-2-hydroxyindan-1-yl]-4-(2-imino-4,4-dimethyl-6-oxo-hexahydropyrimidin-1-yl)-3-methoxy-chromane-6-carboxamide], 60 nM.
On the same count and under the same terms, the result for `CCC1(CC)CC(=O)N([C@H]2c3cc(C(=O)N[C@@H]4c5ccccc5OC(C)(C)[C@H]4O)ccc3OC[C@H]2C)C(=N)N1` [Example 241, (3S,4R)-4-(4,4-diethyl-2-imino-6-oxo-hexahydropyrimidin-1-yl)-N-[(3S,4R)-3-hydroxy-2,2-dimethyl-chroman-4-yl]-3-methyl-chromane-6-carboxamide] reads 0.4 nM; that for `CCC1(CC)CC(=O)N([C@@H]2CCc3ccc(C(=O)N[C@@H]4c5ccccc5OC(C)(C)[C@H]4O)cc32)C(=N)N1` [Example 159, (3R)-3-(4,4-diethyl-2-imino-6-oxo-hexahydropyrimidin-1-yl)-N-[(3S,4R)-3-hydroxy-2,2-dimethyl-chroman-4-yl]indane-5-carboxamide], 0.5 nM; that for `CCC1(CC)CC(=O)N([C@@H]2CCOc3ccc(C(=O)N[C@@H]4c5ccccc5C5(CC5)[C@H]4O)cc32)C(=N)N1` [Example 154, (4R)-4-(4,4-diethyl-2-imino-6-oxo-hexahydropyrimidin-1-yl)-N-[(1′R,2′R)-2′-hydroxyspiro[cyclopropane-1,3′-indane]-1′-yl]chromane-6-carboxamide], 0.7 nM.
Turning to `CCC1(CC)CC(=O)N(C2CCOc3ccc(C(=O)N[C@@H]4c5ccccc5OC(C)(C)[C@H]4O)cc32)C(=N)N1` (stereo partly drawn) [Example 2A, 4-(4,4-diethyl-2-imino-6-oxotetrahydropyrimidin-1(2H)-yl)-N-((3S,4R)-3-hydroxy-2,2-dimethylchroman-4-yl)chroman-6-carboxamide], the EC50 stood at 0.5 nM.
Take `CC(C)[C@]1(C)CC(=O)N([C@@H]2CCOc3ccc(C(=O)N[C@H]4CC(C)(C)Oc5ccccc54)cc32)C(=N)N1` [Example 10A, (R)-N-((S)-2,2-dimethylchroman-4-yl)-4-((S)-2-imino-4-isopropyl-4-methyl-6-oxotetrahydropyrimidin-1(2H)-yl)chromane-6-carboxamide]: the 50% effective concentration (EC50) was 0.5 nM.
Take `CCC1(CC)CC(=O)N([C@H]2CCS(=O)(=O)c3ccc(C(=O)N[C@@H]4c5ccccc5C[C@H]4O)cc32)C(=N)N1` [Example 223, (4S)-4-(4,4-diethyl-2-imino-6-oxo-hexahydropyrimidin-1-yl)-N-[(1R,2R)-2-hydroxyindan-1-yl]-1,1-dioxo-3,4-dihydro-2H-thiochromene-6-carboxamide]: the 50% effective concentration (EC50) amounted to 300 nM.
The same measure, in the same setting: the result for `CCC1(CC)CC(=O)N([C@H]2c3cc(C(=O)N[C@@H]4c5ccccc5OC(C)(C)[C@H]4O)ccc3OC[C@]2(C)OC)C(=N)N1` [Example 296, (3R,4S)-4-(4,4-diethyl-2-imino-6-oxo-hexahydropyrimidin-1-yl)-N-[(3S,4R)-3-hydroxy-2,2-dimethyl-chroman-4-yl]-3-methoxy-3-methyl-chromane-6-carboxamide] reads 0.3 nM.

The same test, now with this note: parasite LDH growth assay, ring stage parasites, 72 hours incubation at 37° C.; read-out: EC50.
Turning to `CCC1(CC)CC(=O)N([C@H]2c3cc(C(=O)N[C@@H]4c5ccccc5OC(C)(C)[C@H]4O)ccc3OCC2OC)C(=N)N1` (stereo partly drawn) [Example 67B, (3R,4S)-4-(4,4-diethyl-2-imino-6-oxotetrahydropyrimidin-1(2H)-yl)-N-((3S,4R)-3-hydroxy-2,2-dimethylchroman-4-yl)-3-methoxychromane-6-carboxamide], the concentration for a half-maximal effect (EC50) was 0.8 nM.
Still for that read-out and setting: for `CC[C@]1(C)CC(=O)N([C@@H]2CCOc3ccc(C(=O)NC4c5c(F)cccc5OCC4(C)O)cc32)C(=N)N1` (stereo partly drawn) [Example 193B, (4R)-4-[(4R)-4-ethyl-2-imino-4-methyl-6-oxo-hexahydropyrimidin-1-yl]-N-(5-fluoro-3-hydroxy-3-methyl-chroman-4-yl)chromane-6-carboxamide] the value was 0.8 nM; for `CCC1(CC)CC(=O)N([C@H]2c3cc(C(=O)N[C@H]4CC(C)(C)Oc5ccccc54)ccc3OC2(C)COC)C(=N)N1` (stereo partly drawn) [Example 74A, (2S,3S)-3-(4,4-diethyl-2-imino-6-oxotetrahydropyrimidin-1(2H)-yl)-N-((S)-2,2-dimethylchroman-4-yl)-2-(methoxymethyl)-2-methyl-2,3-dihydrobenzofuran-5-carboxamide], 0.3 nM; for `CCC1(CC)CC(=O)N([C@@H]2CCS(=O)(=O)c3ccc(C(=O)N[C@H]4CC(C)(C)Oc5ccccc54)cc32)C(=N)N1` [Example 289, (4R)-4-(4,4-diethyl-2-imino-6-oxo-hexahydropyrimidin-1-yl)-N-[(4S)-2,2-dimethylchroman-4-yl]-1,1-dioxo-3,4-dihydro-2H-thiochromene-6-carboxamide], 0.6 nM.
`CCC1(CC)CC(=O)N([C@@H]2CC(C)(C)Oc3ccc(C(=O)N[C@@H]4c5ccccc5CC4(C)O)cc32)C(=N)N1` (stereo partly drawn) [Example 42A, (4R)-4-(4,4-diethyl-2-imino-6-oxotetrahydropyrimidin-1(2H)-yl)-N-((1R)-2-hydroxy-2-methyl-2,3-dihydro-1H-inden-1-yl)-2,2-dimethylchromane-6-carboxamide]: the concentration for a half-maximal effect (EC50) was 1 nM.

Values taken from US20230355622A1, “METHODS OF CHEMOVACCINATION AGAINST PLASMODIUM INFECTIONS” (Merck Sharp & Dohme LLC, priority 2020, published 2023).
